Series [1] concerns cancer cells in the lesion. Description: DNA damage and apoptosis in tumor lesions (LCM, caspase 3 cleavage IHC). The class given is in vivo, mice. From the text:
The signals of Caspase 3 cleaved […] in the lesion of each group of mice were in sharp contrast. Scale bar, 200 μm.
To investigate mechanisms directly supporting this senescence-associated pattern with expression and reversal of SASP in MIT-administered mice, we dissected tumors in animals treated with both drugs 7 days after the first PCC1 administration, and the time point of 7 days after administration was selected mainly because drug-resistant clones had not yet formed in cancer cells in the lesion at this time. […] As supporting evidence, when PCC1 was applied during treatment, caspase 3 cleavage activity was increased, which was a typical hallmark of apoptosis (FIG. 29).

The test system of series [2] is senescent PSC27 cells. Description: RNA-seq / GSEA expression profile of BLEO-induced senescent PSC27 cells. Format: cell-based, human. Here is the method: Whole-transcriptome sequencing was performed on the primary human prostate stromal cell line PSC27 under different treatment conditions. Total RNA samples were obtained from stromal cells. Their integrity was verified by Bioanalyzer 2100 (Agilent), RNA was sequenced by Illumina HiSeq X10, and gene expression levels were quantified by software package rsem (https://deweylab.github.io/rsem/). Briefly, rRNA was depleted from RNA samples with the RiboMinus Eukaryote Kit (Qiagen, Valencia, Calif., USA); and according to the manufacturer's instructions, TruSeq Stranded Total RNA Preparation Kits (Illumina, San Diego, Calif.), USA) was used to construct a strand-specific RNA-seq library before deep sequencing.
Paired-end transcriptomic reads were mapped to a reference genome (GRCh38/hg38), and reference-annotation was performed from Gencode v27 using the Bowtie tool. Duplicate reads were identified using the picard Tools (1.98) script to mark duplicates (https://github.com/broadinstitute/picard), and only non-duplicate reads were retained. Reference splice junctions were provided by reference transcriptome (Ensembl Build 73). FPKM values were calculated with Cufflinks, and Cufflinks maximum likelihood estimation function was used to call differential gene expression. Genes with significant changes in expression were defined by false discovery rate (FDR)-corrected P-values<0.05, and only Ensembl Genes 73 with status “Known” and biotype “coding” were used for downstream analysis.
Next, Trim Galore (v0.3.0) (http://www.bioinformatics.babraham.ac.uk/projects/trim_galore/) was used to trim the reads, while the quality assessment was carried out by using FastQC (v0.10.0) (http://www.bioinformatics.bb src.ac.uk/projects/fastqc/). Subsequently, a preliminary analysis of the raw data was perform on a free online platform, Majorbio I-Sanger Cloud Platform (www.i-sanger.com), by using DAVID bioinformatics platform (https://david.ncifcrf.gov/) and Ingenuity Pathways Analysis (IPA) program (http://www.ingenuity.com/index.html), the raw data were deposited in the NCBI Gene Expression Omnibus (GEO) database with access code GSE156448.
Based on the data obtained from the preliminary analysis of RNA-seq, analyzed and compared each differentially expressed significant gene, the genes were sorted using the “wald statistics” obtained from DESeq2, GSEA was performed on the sorting lists of all planning gene sets available in MSigDB (http://software.broadinstitute.org/gsea/msigdb). DESeq2 independent filtering was based on the average of normalized read counts to select genes with very low expression levels. The GSEA signature of SASP was as described in our previous publication (Zhang et al., 2018a).

Series [3] has as its system senescent PSC27 cells. As to the kind of experiment: Caspase 3/7 activity / drug-induced apoptosis in senescent cells. The class given is cell-based, human. Here is the method: PSC27 cells gradually entered the senescent stage after being treated with BLEO for 12 hours under culture conditions. 50 μM PCC1 was added to the medium of senescent cells starting from day 7, NucLight Rapid Red reagent was used to label the cells, and caspase 3/7 reagent (IncuCyte) was used for apoptosis detection. Caspase 3/7 activity was detected every 4 hours (n=3).
Statistical differences are obtained by two-way ANOVA (Turkey' test).
PSC27 cells were plated in a 96-well dish, and the cells were induced to senescence under the treatment of 50 μg/mL BLEO. PCC1 and ABT263 were added at concentrations of 50 μM and 1.0 μM, respectively. Cell culture medium was supplemented with Incucyte Nuclight fast Red Reagent (Essen Bioscience) and Incucyte C-3/7 Apoptosis Reagent (Essen Bioscience). Representative field of view was selected to take pictures.

The subject of a further series is aged C57BL/6 mice. Description: Post-mortem pathological examination of aged mice. The following applies: end of life. Format: in vivo. Here is the method: The researchers checked the cages daily and removed dead mice from the cages. Within 24 hours of animal death, cadavers (abdominal cavity, thoracic cavity, and skull) were opened and kept separately in 10% formalin for at least 7 days. Decomposed or destroyed bodies were excluded. The preserved cadavers were transported to the dedicated autopsy site for pathological examination. Tumor burden (sum of different types of tumors per mouse), disease burden (sum of different histopathological changes in major organs per mouse), severity of each lesion and inflammation (lymphocyte infiltration) were assessed.

The next series concerns SASP factors. As to the kind of experiment: LCM and qRT-PCR of SASP factors in mouse lesions. The class given is in vivo, mice. The following applies: MIT/PCC1 vs MIT, stromal cells. Here is the method:
The stromal cells and cancer cells were specifically separated by LCM technology, total RNA was prepared and used for SASP expression detection. A P>0.05; *, P<0.05; **, P<0.01; ***, P<0.001.
(§1) In a preclinical treatment trial, subcutaneously transplanted mice were fed with a standard experimental diet, after 2 weeks chemotherapy drugs mitoxantrone (MIT, dose: 0.2 mg/kg) and/or procyanidin C1 (PCC1) (500 μl, dose: 10 mg/kg) via intraperitoneal administration. The time points were: the former was administrated on the first day of the 3rd, 5th and 7th weeks, and the latter was administrated on the first day of the 5th and 7th weeks. A total of 3 cycles of MIT administration were carried out throughout the course of treatment, and each cycle lasted for 2 weeks. After the course of treatment, mouse tumors were harvested for volume measurement and histological analysis. Each mouse cumulatively received 0.6 mg/kg body weight of MIT and 30 mg/kg body weight of PCC1. In order to cause systemic expression of SASP factor induced by chemotherapy, MIT was administered to mice through intravenous infusion according to the above steps and sequence, but the dose was reduced to 0.1 mg/kg body weight/each time (the cumulative dose of MIT received in the whole course of treatment was 0.3 mg/kg body weight) to reduce drug-related toxicity. […]
A general note: Real-time PCR tracks product formation cycle by cycle.

For series [4], the system named is senescent cells in tumor tissue. As to the kind of experiment: SA-β-Gal staining of tumor tissue in PC3/PSC27 tumor-bearing mice. The class given is in vivo. The following applies: PCC1 administered to MIT-treated animals. Here is the method: Representative pictures after SA-β-Gal staining. Scale bar, 100 μm.
A P>0.05; **, P<0.01; ***, P<0.001.
as §1

The mark [5] stands for this setting: BLEO/PCC1 vs BLEO group, fold change 2.0, P<0.01.

Molecules are shown by their SMILES.

As for `Oc1cc(O)c2c(c1)O[C@H](c1ccc(O)c(O)c1)[C@H](O)[C@H]2c1c(O)cc(O)c2c1O[C@H](c1ccc(O)c(O)c1)[C@H](O)[C@H]2c1c(O)cc(O)c2c1O[C@H](c1ccc(O)c(O)c1)[C@H](O)C2` [PCC1, procyanidin C1], the “indices of DNA damage or apoptosis” value in series [1] (PCC1 administered to MIT-treated animals) is “significantly enhanced”. Also, in series [1] (PCC1 applied during MIT treatment), the “caspase 3 cleavage activity” value is “increased”. Further, the “degree of DNA damage and apoptosis” value in series [1] (single agent vs placebo, 7 days after first PCC1 administration) is “could not induce DNA damage or cause apoptosis”. In the series with senescent PSC27 cells [2] (setting [5]), the “number of genes significantly down-regulated” value is given as 4406 genes and the “number of genes up-regulated” value is on record as 2766 genes. Moreover, in the series on senescent PSC27 cells [2] (RNA-seq heatmap), the “expression of SASP factors in senescent cells after treatment” value was “generally decreased”. The “GSEA molecular signatures of SASP expression or NF-κB activation” value in the series on senescent PSC27 cells [2] (senescent cells after PCC1) is recorded as “significant repression”. The “time after addition from which caspase-3/7 activity differs statistically between senescent and control group” value in the series with senescent PSC27 cells [3] (50 μM PCC1) is 16 h. Further, the “effect on proliferating cells (apoptosis)” value in the series on senescent PSC27 cells [3] (proliferating PSC27) is given as “basically not targeted or affected”. Moreover, the “prevalence of several age-related diseases and tumor burden at autopsy vs vehicle” value in the series with aged C57BL/6 mice is recorded as “did not show statistical differences”. In the series on SASP factors, the “MIT-induced SASP expression change upon PCC1” value is given as “largely reversed”. For the same compound, the “senescent cells within lesions of chemotherapeutic (MIT) animals” value in series [4] was “substantially depleted most senescent cells”.

Values taken from US12721832B2, “Anti-senescence plant polyphenol drug downregulating senescence-related secretory phenotype and use thereof” (BYHEALTH CO., LTD., priority 2021, dated 2026).
